Test results taken from US6762205B1, “Phenyl sulfamate derivatives” (Teikoku Hormone Mfg. Co., Ltd., priority 1999, dated 2004).
Where two headings read alike, the source gives them in different places.

How the values were obtained:
[1] = qualitative statement on prior art compounds; cited from earlier work
[2] = target: T1, steroid sulfatase (Homo sapiens, UniProt P08842); settings: qualitative statement on prior art compounds; cited from earlier work
T1 sequence (P08842 22-583): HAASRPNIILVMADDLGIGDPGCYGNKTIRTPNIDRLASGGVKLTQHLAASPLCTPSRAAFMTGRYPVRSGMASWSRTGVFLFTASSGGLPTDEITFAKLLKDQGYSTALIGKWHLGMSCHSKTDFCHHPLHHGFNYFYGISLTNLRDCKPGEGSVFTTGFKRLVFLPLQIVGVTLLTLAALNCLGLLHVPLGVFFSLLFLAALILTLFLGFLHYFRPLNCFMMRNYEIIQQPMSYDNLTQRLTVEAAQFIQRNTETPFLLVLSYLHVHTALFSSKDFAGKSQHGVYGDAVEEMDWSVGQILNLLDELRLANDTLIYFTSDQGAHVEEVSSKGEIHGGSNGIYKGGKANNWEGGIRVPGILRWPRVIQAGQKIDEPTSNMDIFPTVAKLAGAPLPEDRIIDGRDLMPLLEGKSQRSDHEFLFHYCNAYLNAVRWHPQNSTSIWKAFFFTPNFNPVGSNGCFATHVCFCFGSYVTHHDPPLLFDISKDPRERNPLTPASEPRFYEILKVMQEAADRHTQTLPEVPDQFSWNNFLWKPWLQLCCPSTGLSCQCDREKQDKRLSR

[3] = target: T2, steroid sulfatase (Rattus norvegicus, UniProt P15589); experiment: In vivo inhibitory effect on steroid sulfatase (rat liver and uterus homogenates after 5 days of dosing); settings: po, once a day for 5 days, female SD rats, 4 hours after final administration
T2 construct: the liver and the uterus were excised from each rat; from tissue; host or cells: rat liver and uterus homogenate (2,000 x g supernatant) after 5 days of dosing
T2 sequence (P15589 20-577): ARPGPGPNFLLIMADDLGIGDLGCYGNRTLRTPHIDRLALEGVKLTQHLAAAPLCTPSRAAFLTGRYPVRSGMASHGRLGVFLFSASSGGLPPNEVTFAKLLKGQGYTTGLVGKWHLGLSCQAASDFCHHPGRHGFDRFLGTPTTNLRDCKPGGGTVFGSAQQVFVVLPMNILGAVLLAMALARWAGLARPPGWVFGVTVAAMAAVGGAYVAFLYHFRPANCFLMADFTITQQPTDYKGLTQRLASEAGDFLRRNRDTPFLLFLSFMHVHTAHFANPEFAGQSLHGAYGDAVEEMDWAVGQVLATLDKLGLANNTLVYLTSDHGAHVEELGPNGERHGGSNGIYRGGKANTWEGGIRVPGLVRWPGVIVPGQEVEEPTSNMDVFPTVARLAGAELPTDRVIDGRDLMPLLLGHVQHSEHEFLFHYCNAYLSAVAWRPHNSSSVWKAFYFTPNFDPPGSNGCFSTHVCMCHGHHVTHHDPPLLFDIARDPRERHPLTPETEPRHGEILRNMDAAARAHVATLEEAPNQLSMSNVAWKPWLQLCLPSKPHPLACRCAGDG
Excerpt: (2) Measurement of an In vivo Inhibitory Effect on Steroid Sulfatase
A test compound was suspended in a 0.5% polyoxyethylene (20) sorbitan monooleate solution (Tween 80) and administered, once a day, to a group of 5 female SD strain rats (weighing 168-194 g) for 5 days.
Four hours after the final administration, all rats were sacrificed by ether anesthesia and dissected. Thus, the liver and the uterus were excised from each rat, washed once with cold phosphate-buffered saline (PBS, pH 7.4), and preserved at −70° C. or below. Each of the liver and the uterus was finely minced with scissors, and suspended in PBS containing 250 mM sucrose (5 ml/g tissue). Under cooling with ice, each suspension was homogenized with an Ultra-Turrax homogenizer. The resulting homogenate was centrifuged (at 4° C.) at 2,000×g for 30 minutes to remove nuclei and cell debris, and the protein concentration in this supernatant was measured according to the method of Bradford [Anal. Biochem. 72, 248-254(1976)].
The homogenate in an amount corresponding to a protein concentration of 100-500 μg/ml was mixed with [6,7-^3H]estrone 3-sulfate (with a specific activity of 49 Ci/mmol; from New England Nuclear, Boston, Mass., USA) in an amount corresponding to a substrate concentration of 20 μM. This mixture was diluted with PBS to a total volume of 1 ml, and incubated at 37° C. for 30 minutes. After incubation (1 ml), the steroid sulfatase activity was determined in the same manner as described above for the in vitro measurement (1).

[4] = target: T1, steroid sulfatase; experiment: In vitro inhibitory effect on steroid sulfatase (intact MCF-7 cells, [3H]estrone 3-sulfate hydrolysis); format: cell-based; parameters: Six-well plates (9.4 cm^2/well) were inoculated with intact MCF-7 human breast cancer cells; endogenous in cells; host or cells: MCF-7 human breast cancer cells; settings: MCF7; 3 × 10^−9 M test compound; intact MCF-7 human breast cancer cells; 37° C., 20 hours; read-out: Inhibitory rate (3 × 10^−9 M. %)
Protocol: (1) Measurement of an In vitro Inhibitory Effect on Steroid Sulfatase
Six-well plates (9.4 cm^2/well) were inoculated with intact MCF-7 human breast cancer cells at a density of about 1×10^5 cells/well. Using Dulbecco's modified Eagle medium (DMEM) containing 10 mM HEPES, 5% fetal bovine serum, 0.011% sodium pyruvate and 0.37% sodium bicarbonate, the cells were grown to 80% confluency.
The plates were washed with Earle's balanced salt solution (EBSS from Life Technologies Inc., Grand Island, N.Y., USA). Then, serum-free DMEM (2 ml) containing 4 pmol (4.4×10^5 dpm) of [6,7-^3H]estrone 3-sulfate (with a specific activity of 49 Ci/mmol; from New England Nuclear, Boston, Mass., USA), together with a test compound, was placed on each plate and incubated at 37° C. for 20 hours. After incubation, the plate was cooled, and the medium (1 ml) was pipetted into a separating tube containing [4-^14C]estrone (6×10^3 dpm) (with a specific activity of 52.5 mCi/mmol; from New England Nuclear, Boston, Mass., USA). This mixture, together with toluene (4 ml), was vigorously shaken for 30 seconds. It was shown by experiment that more than 90% of [4-^14C]estrone was removed from the aqueous layer by this treatment. A portion (2 ml) of the organic phase was taken, and the ^3H and ^14C contents thereof were measured by scintillation spectrometry. Then, the amount of estrone 3-sulfate hydrolyzed was calculated from the total 3H count (corrected for the volumes of the medium used and the organic phase, and for the recovery of the [^14C]estrone added) and the specific activity of the substrate.

[5] = liver, read-out: Inhibitory rate (0.5 mg/kg, p.o., %) Liver
[6] = uterus, read-out: Inhibitory rate (0.5 mg/kg, p.o., %) Uterus

| inhibition at 0.5 mg/kg [3, 5] [%] | inhibition at 0.5 mg/kg [3, 6] [%] | inhibition at 0.003 µM [4] [%] | SMILES | estrogenic action [1] | inhibitory effect on steroid sulfatase [2] |
| --- | --- | --- | --- | --- | --- |
|  |  |  | Cc1cc(=O)oc2cc(OS(N)(=O)=O)ccc12 [COUMATE, 4-methylcoumarin 7-sulfamate] | do not show an estrogenic action | weak |
|  |  |  | CCCCCCCCCCCCCC(=O)NCCc1ccc(OS(N)(=O)=O)cc1 [DU-14, 4-(2-myristoylaminoethyl)phenyl sulfamate] | do not show an estrogenic action | weak |
|  |  |  | C[C@]12CC[C@@H]3c4ccc(OS(N)(=O)=O)cc4CC[C@H]3[C@@H]1CCC2=O [EMATE, estrone 3-sulfamate] | powerful estrogenic action | powerful inhibitory effect |
| 91.2 | 94.9 |  | NS(=O)(=O)Oc1ccc(-c2ccccc2[N+](=O)[O-])cc1 [Example 1, 2′-nitrobiphenyl-4-yl sulfamate] |  |  |
| 95.4 | 93.8 | 76 | N#Cc1ccccc1-c1ccc(OS(N)(=O)=O)cc1 [Example 3, 2′-cyanobiphenyl-4-yl sulfamate] |  |  |
| 97 | 100 |  | NS(=O)(=O)Oc1ccc(-c2ccc([N+](=O)[O-])cc2)cc1 [Example 16, 4′-nitrobiphenyl-4-yl sulfamate] |  |  |
| 97.2 | 97.6 |  | NS(=O)(=O)Oc1ccc(-c2ccc(OS(N)(=O)=O)cc2)cc1 [Example 21, biphenyl-4,4′-diyl disulfamate] |  |  |
| 99.5 | 100 | 87 | N#Cc1cc([N+](=O)[O-])ccc1-c1ccc(OS(N)(=O)=O)cc1 [Example 25, 2′-cyano-4′-nitrobiphenyl-4-yl sulfamate] |  |  |
|  |  | 94 | N#Cc1ccc(-c2ccc(OS(N)(=O)=O)cc2)c(C#N)c1 [Example 27, 2′,4′-dicyanobiphenyl-4-yl sulfamate] |  |  |
| 85.3 | 79 |  | N#Cc1ccc(N(Cc2ccc(OS(N)(=O)=O)cc2)n2cnnc2)cc1 [Example 38, 4-[N-(4-cyano-phenyl)-N-(1,2,4-triazol-4-yl)aminomethyl]phenyl sulfamate] |  |  |

| SMILES | inhibition at 0.5 mg/kg [3, 5] [%] | inhibition at 0.5 mg/kg [3, 6] [%] | inhibition at 0.003 µM [4] [%] | estrogenic action [1] | inhibitory effect on steroid sulfatase [2] |
| --- | --- | --- | --- | --- | --- |
| NS(=O)(=O)Oc1ccc(-c2ccc([N+](=O)[O-])cc2[N+](=O)[O-])cc1 [Example 23, 2′,4′-dinitrobiphenyl-4-yl sulfamate] |  |  | 67 |  |  |
